Paper PMC8253220, “Molecular design, synthesis and in vitro biological evaluation of thienopyrimidine–hydroxamic acids as chimeric kinase HDAC inhibitors: a challenging approach to combat cancer” (Journal of Enzyme Inhibition and Medicinal Chemistry, 2021)
Where “and” joins values, the source holds several entries; their conditions need not be identical. Equal values may be shown once.

Columns and labels:
Test in all cases: NCI one-dose screen
Type in all cases: cell-based, human
MDA-MB-231/ATCC = conditions: Breast MDA-MB-231/ATCC, 10 µM single dose
Outline: (§1)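 At 10 μM, a single concentration, compounds were evaluated for antiproliferative effect in the NCI 60-line screen, with growth expressed relative to untreated control cells.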

SK-MEL-28 = conditions: Melanoma SK-MEL-28, 10 µM single dose
Outline: (§2)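 One concentration (10 μM) applied to each line of the full NCI-60 panel; percent growth compared against untreated cells.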

SNB-19 = conditions: CNS SNB-19, 10 µM single dose
Outline: as §2

CAKI-1 = conditions: Renal CAKI-1, 10 µM single dose
Outline: as §1

NCI-H522 = conditions: NSCLC NCI-H522, 10 µM single dose
Outline: (§3)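 Each cell line received compound at 10 μM as part of the NCI one-dose protocol. Values reflect growth inhibition percent calculated from growth relative to untreated controls.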

MDA-MB-468 = conditions: Breast MDA-MB-468, 10 µM single dose
Outline: (§4)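 In vitro antiproliferative testing: NCI-60 panel, initial single dose 10 μM, inhibition % derived from percent growth of treated versus untreated control cells.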

DU-145 = conditions: Prostate DU-145, 10 µM single dose
Outline: as §1

OVCAR-5 = conditions: Ovarian OVCAR-5, 10 µM single dose
Outline: as §1

HCT-15 = conditions: Colon HCT-15, 10 µM single dose
Outline: as §1

HCC-2998 = conditions: Colon HCC-2998, 10 µM single dose
Outline: as §1

ACHN = conditions: Renal ACHN, 10 µM single dose
Outline: as §1

RPMI-8226 = conditions: Leukemia RPMI-8226, 10 µM single dose
Outline: as §1

BT-549 = conditions: Breast BT-549, 10 µM single dose
Outline: as §1

COLO 205 = conditions: Colon COLO 205, 10 µM single dose
Outline: as §1

KM12 = conditions: Colon KM12, 10 µM single dose
Outline: as §4

LOX IMVI = conditions: Melanoma LOX IMVI, 10 µM single dose
Outline: as §1

MCF7 = conditions: Breast MCF7, 10 µM single dose
Outline: as §4

OVCAR-3 = conditions: Ovarian OVCAR-3, 10 µM single dose
Outline: as §1

SF-539 = conditions: for Growth Percent: CNS SF-539, 10 µM single dose
Outline: as §4

SNB-75 = conditions: for Growth Percent: CNS SNB-75, 10 µM single dose
Outline: as §3

NCI-H23 = conditions: NSCLC NCI-H23, 10 µM single dose
Outline: as §4

EKVX = conditions: NSCLC EKVX, 10 µM single dose
Outline: as §3

CCRF-CEM = conditions: Leukemia CCRF-CEM, 10 µM single dose
Outline: as §1

NCI/ADR-RES = conditions: Ovarian NCI/ADR-RES, 10 µM single dose
Outline: as §1

M14 = conditions: Melanoma M14, 10 µM single dose
Outline: as §1

RXF 393 = conditions: Renal RXF 393, 10 µM single dose
Outline: as §1

IGROV1 = conditions: Ovarian IGROV1, 10 µM single dose
Outline: as §1

SK-MEL-2 = conditions: Melanoma SK-MEL-2, 10 µM single dose
Outline: as §2

HCT-116 = conditions: Colon HCT-116, 10 µM single dose
Outline: as §1

U251 = conditions: CNS U251, 10 µM single dose
Outline: as §3

HL-60(TB) = conditions: Leukemia HL-60(TB), 10 µM single dose
Outline: as §1

786-0 = conditions: Renal 786-0, 10 µM single dose
Outline: as §1

SF-268 = conditions: CNS SF-268, 10 µM single dose
Outline: as §4

K-562 = conditions: Leukemia K-562, 10 µM single dose
Outline: as §1

OVCAR-4 = conditions: Ovarian OVCAR-4, 10 µM single dose
Outline: as §1

NCI-H460 = conditions: NSCLC NCI-H460, 10 µM single dose
Outline: as §1

SK-MEL-5 = conditions: Melanoma SK-MEL-5, 10 µM single dose
Outline: as §1

Row | SMILES | Growth Percent (MDA-MB-231/ATCC) | Growth Percent (SK-MEL-28) | Growth Percent (SNB-19) | Growth Percent (CAKI-1) | Growth Percent (NCI-H522) | Growth Percent (MDA-MB-468) | Growth Percent (DU-145) | Growth Percent (OVCAR-5) | Growth Percent (HCT-15) | Growth Percent (HCC-2998) | Growth Percent (ACHN) | Growth Percent (RPMI-8226) | Growth Percent (BT-549) | Growth Percent (COLO 205) | Growth Percent (KM12) | Growth Percent (LOX IMVI) | Growth Percent (MCF7) | Growth Percent (OVCAR-3) | Growth Percent (SF-539) | Growth Percent (SNB-75) | further results
1 | COc1cccc(NC(=O)Nc2ccc(Nc3ncnc4sc(C(=O)NCCCC(=O)NO)c(C)c34)cc2)c1 [Compound 12b, 1–(4-(6-((4-(hydroxyamino)-4-oxobutyl)carbamoyl)-5-methylthieno[2,3-d]pyrimidin-4-ylamino)phenyl)-3–(3-methoxyphenyl)urea] | 97.0% and 97.05% | 104.0% and 104.05% | 97.9% | 97.1% and 97.14% | 81.7% and 81.76% | 97.0% and 97.02% | 98.5% and 98.54% | 107.5% and 107.59% | 99.6% and 99.68% | 108.5% and 108.55% | 98.6% and 98.68% | 106.6% and 106.68% | 105.5% and 105.57% | 111.3% and 111.31% | 101.3% and 101.38% | 90.7% and 90.77% | 91.5% | 99.3% and 99.38% | 98.2% and 98.26% | 90.6% and 90.62% | Growth Percent (NCI-H23): 97.5% and 97.53%; Growth Percent (EKVX): 92.1% and 92.11%; Growth Percent (CCRF-CEM): 103.5% and 103.52%; Growth Percent (NCI/ADR-RES): 101.6% and 101.63%; Growth Percent (M14): 104.0% and 104.04%; Growth Percent (RXF 393): 110.4% and 110.44%; Growth Percent (IGROV1): 97.0% and 97.08%; Growth Percent (SK-MEL-2): 94.6% and 94.66%; Growth Percent (HCT-116): 99.2% and 99.29%; Growth Percent (U251): 92.8% and 92.88%; Growth Percent (HL-60(TB)): 102.4%; Growth Percent (786-0): 105.9%; Growth Percent (SF-268): 95.1%; Growth Percent (K-562): 101.6% and 101.69%; Growth Percent (OVCAR-4): 99.9% and 99.93%; Growth Percent (NCI-H460): 99.1%; Growth Percent (SK-MEL-5): 97.3% and 97.37%
2 | Cc1c(C(=O)NCCCC(=O)NO)sc2ncnc(Nc3ccc(NC(=O)Nc4cccc(C(F)(F)F)c4)cc3)c12 [Compound 12c, 1–(4-(6-((4-(hydroxyamino)-4-oxobutyl)carbamoyl)-5-methylthieno[2,3-d]pyrimidin-4-ylamino)phenyl)-3–(3-(trifluoromethyl)phenyl)urea] | 99.1% and 99.12% | 109.2% and 109.22% | 96.8% and 96.88% | 100.6% and 100.67% | 94.1% and 94.19% | 105.6% and 105.66% | 106.6% and 106.64% | 111.3% and 111.33% | 99.9% and 99.96% | 113.6% and 113.65% | 105.9% and 105.92% | 104.0% and 104.09% | 118.8% and 118.81% | 114.9% and 114.97% | 102.1% and 102.13% | 98.1% and 98.14% | 95.2% and 95.26% | 117.8% and 117.86% | 71.5% and 71.52% | 70.7% and 70.76% | inhibition at 10 µM (SF-539; Homo sapiens, CNS SF-539, 10 μM): 28.5%; inhibition at 10 µM (SNB-75; Homo sapiens, CNS SNB-75, 10 μM): 29.2%; Growth Percent (NCI-H23): 104.6% and 104.64%; Growth Percent (EKVX): 100.0% and 100.09%; Growth Percent (CCRF-CEM): 107.8% and 107.81%; Growth Percent (NCI/ADR-RES): 99.2% and 99.22%; Growth Percent (M14): 107.2% and 107.23%; Growth Percent (RXF 393): 108.5% and 108.58%; Growth Percent (IGROV1): 116.7% and 116.77%; Growth Percent (SK-MEL-2): 107.8% and 107.86%; Growth Percent (HCT-116): 107.2% and 107.24%; Growth Percent (U251): 87.3% and 87.39%; Growth Percent (HL-60(TB)): 104.7% and 104.71%; Growth Percent (786-0): 106.6% and 106.68%; Growth Percent (SF-268): 98.7% and 98.75%; Growth Percent (K-562): 103.8% and 103.86%; Growth Percent (OVCAR-4): 110.1% and 110.14%; Growth Percent (NCI-H460): 101.9% and 101.92%; Growth Percent (SK-MEL-5): 100.9% and 100.91%
3 | Cc1c(C(=O)NO)sc2ncnc(Nc3cccc4[nH]cnc34)c12 [Compound 15a, 4-(1H-benzo[d]imidazol-4-ylamino)-N-hydroxy-5-methylthieno[2,3-d]pyrimidine-6-carboxamide] | 102.4% and 102.49% | 107.8% and 107.83% | 98.9% and 98.99% | 92.9% and 92.95% | 94.4% and 94.42% | 101.3% and 101.31% | 109.5% and 109.53% | 107.0% and 107.01% | 102.15% | 100.9% and 100.92% | 99.1% and 99.11% | 112.17% | 113.5% and 113.56% | 112.8% and 112.81% | 101.12% | 97.5% and 97.58% | 95.2% and 95.25% | 106.1% and 106.13% | 102.5% and 102.52% | 81.0% and 81.08% | Growth Percent (NCI-H23): 92.2% and 92.27%; Growth Percent (EKVX): 98.4% and 98.44%; Growth Percent (CCRF-CEM): 110.7% and 110.72%; Growth Percent (NCI/ADR-RES): 102.6% and 102.67%; Growth Percent (M14): 106.5% and 106.58%; Growth Percent (RXF 393): 101.2% and 101.28%; Growth Percent (IGROV1): 97.9% and 97.91%; Growth Percent (SK-MEL-2): 115.8% and 115.88%; Growth Percent (HCT-116): 103.9% and 103.95%; Growth Percent (U251): 96.7% and 96.72%; Growth Percent (HL-60(TB)): 101.2% and 101.27%; Growth Percent (786-0): 102.1% and 102.13%; Growth Percent (SF-268): 93.9%; Growth Percent (K-562): 101.00%; Growth Percent (OVCAR-4): 111.9% and 111.94%; Growth Percent (NCI-H460): 102.7% and 102.72%; Growth Percent (SK-MEL-5): 101.5% and 101.54%
